Counter-ions that a name gives are not always drawn.
Tests used:
EGFR WT = EGFR WT (Homo sapiens (Human), UniProt P00533); assay: ErbB enzyme assay (CisBio HTRF-KinEASE-TK), EGFR WT; format: biochemical; conditions: ATP at Km (25 μM), 1 h incubation
Summary of the method: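 Potency comes from a homogeneous time-resolved fluorescence kinase format measuring tyrosine substrate phosphorylation. Reactions and detection steps each run 1 h at ambient temperature. IC50 values are interpolated from 4-parameter logistic fits of percent-of-control data.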

ErbB2 V777L = ErbB2 V777L (Homo sapiens (Human), UniProt P04626, V777L); assay: ErbB enzyme assay (CisBio HTRF-KinEASE-TK), ErbB2 V777L; format: biochemical
Sequence of ErbB2 V777L (P04626 23-1255 V777L): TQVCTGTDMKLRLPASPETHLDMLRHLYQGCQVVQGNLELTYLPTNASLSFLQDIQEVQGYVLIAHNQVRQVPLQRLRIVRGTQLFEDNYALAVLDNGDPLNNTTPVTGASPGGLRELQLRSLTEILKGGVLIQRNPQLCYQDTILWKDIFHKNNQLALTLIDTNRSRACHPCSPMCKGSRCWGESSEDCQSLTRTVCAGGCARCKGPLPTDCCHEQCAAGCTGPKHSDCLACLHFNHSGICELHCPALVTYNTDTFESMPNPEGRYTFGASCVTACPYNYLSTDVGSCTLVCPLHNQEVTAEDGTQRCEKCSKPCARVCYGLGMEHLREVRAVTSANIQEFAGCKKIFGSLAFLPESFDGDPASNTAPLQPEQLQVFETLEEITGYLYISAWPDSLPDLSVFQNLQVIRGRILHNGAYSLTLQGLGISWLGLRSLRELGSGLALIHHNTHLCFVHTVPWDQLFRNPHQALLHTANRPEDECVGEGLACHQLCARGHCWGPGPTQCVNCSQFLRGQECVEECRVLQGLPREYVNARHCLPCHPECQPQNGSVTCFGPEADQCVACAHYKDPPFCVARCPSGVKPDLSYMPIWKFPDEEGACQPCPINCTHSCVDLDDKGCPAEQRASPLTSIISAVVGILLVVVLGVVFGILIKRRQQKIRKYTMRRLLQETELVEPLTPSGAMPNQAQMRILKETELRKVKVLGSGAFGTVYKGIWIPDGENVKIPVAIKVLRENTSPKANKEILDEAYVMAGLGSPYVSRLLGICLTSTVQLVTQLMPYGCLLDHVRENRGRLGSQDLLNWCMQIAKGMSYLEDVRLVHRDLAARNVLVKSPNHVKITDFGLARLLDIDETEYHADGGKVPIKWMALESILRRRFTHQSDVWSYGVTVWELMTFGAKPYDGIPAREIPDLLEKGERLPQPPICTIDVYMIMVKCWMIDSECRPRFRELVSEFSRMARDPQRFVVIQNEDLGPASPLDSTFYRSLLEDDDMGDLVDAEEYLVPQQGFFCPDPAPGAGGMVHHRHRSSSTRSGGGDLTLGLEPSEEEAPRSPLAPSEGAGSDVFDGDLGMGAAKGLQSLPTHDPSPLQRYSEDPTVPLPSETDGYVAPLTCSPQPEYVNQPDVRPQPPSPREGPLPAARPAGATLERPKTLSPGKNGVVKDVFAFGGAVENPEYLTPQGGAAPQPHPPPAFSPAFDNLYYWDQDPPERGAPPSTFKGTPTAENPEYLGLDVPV
Summary of the method: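 HTRF KinEASE-TK tyrosine-kinase read-out of substrate phosphorylation after a final 1 h at ambient temperature, from the 655/620 nm emission ratio.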

Sequence of EGFR WT (P00533 25-1210): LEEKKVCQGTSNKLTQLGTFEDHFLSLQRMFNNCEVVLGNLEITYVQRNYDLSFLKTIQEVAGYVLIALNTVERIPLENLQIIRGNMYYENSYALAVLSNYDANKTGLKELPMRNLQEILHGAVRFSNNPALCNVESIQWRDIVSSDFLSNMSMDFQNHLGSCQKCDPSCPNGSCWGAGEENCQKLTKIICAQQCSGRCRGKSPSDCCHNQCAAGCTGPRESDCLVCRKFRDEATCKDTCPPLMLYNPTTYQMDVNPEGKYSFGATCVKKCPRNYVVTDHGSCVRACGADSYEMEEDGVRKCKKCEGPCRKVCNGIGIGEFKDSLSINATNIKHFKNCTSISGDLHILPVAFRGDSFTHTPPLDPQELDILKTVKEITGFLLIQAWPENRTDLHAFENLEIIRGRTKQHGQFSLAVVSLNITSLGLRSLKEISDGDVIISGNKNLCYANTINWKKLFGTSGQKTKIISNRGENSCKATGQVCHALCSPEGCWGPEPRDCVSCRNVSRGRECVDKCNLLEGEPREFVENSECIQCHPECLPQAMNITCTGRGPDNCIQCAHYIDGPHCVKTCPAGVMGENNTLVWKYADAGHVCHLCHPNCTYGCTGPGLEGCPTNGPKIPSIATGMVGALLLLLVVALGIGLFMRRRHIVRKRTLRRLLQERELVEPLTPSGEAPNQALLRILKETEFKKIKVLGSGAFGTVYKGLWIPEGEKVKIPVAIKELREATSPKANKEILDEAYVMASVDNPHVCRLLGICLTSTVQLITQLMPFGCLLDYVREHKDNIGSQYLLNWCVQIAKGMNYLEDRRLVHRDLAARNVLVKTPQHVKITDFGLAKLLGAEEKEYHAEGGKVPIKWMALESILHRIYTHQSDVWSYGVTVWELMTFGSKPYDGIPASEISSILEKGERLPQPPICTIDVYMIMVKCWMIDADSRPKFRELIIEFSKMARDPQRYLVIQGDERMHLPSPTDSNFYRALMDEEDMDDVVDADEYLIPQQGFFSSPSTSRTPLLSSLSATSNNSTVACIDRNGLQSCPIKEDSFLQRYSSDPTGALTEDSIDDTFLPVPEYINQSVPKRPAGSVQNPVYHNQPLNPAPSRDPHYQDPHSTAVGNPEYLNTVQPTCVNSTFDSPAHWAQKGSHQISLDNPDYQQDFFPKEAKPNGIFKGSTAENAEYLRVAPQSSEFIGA

SMILES | IC50 (EGFR WT) [µM] | IC50 (ErbB2 V777L) [µM]
C=CC(=O)N1CCC[C@H](N(C)c2ncc3ncnc(Nc4ccc(Oc5ccc6c(c5)nnn6C)c(C)c4)c3n2)C1 [Compound 224, (S)-1-(3-(methyl(8-((3-methyl-4-((1-methyl-1H-benzo[d][1,2,3]triazol-5-yl)oxy)phenyl)amino)pyrimido[5,4-d]pyrimidin-2-yl)amino)piperidin-1-yl)prop-2-en-1-one] | 0.1 to 0.5 | 0.05 to 0.1
C=CC(=O)N[C@H]1CCCCN(c2ccc3ncnc(Nc4ccc(Oc5ccc6c(c5)nnn6C)c(C)c4F)c3n2)C1 [Compound 291, (S)-N-(1-(4-((2-fluoro-3-methyl-4-((1-methyl-1H-benzo[d][1,2,3]triazol-5-yl)oxy)phenyl)amino)pyrido[3,2-d]pyrimidin-6-yl)azepan-3-yl)acrylamide] | 0.1 to 0.5 | 0.05 to 0.1
C=CC(=O)N1C2CCC1CC(c1ccc3ncnc(Nc4ccc(Oc5ccc6c(c5)nnn6C)c(C)c4)c3n1)C2 (stereo not drawn) [Compound 397, 1-(3-(4-((3-methyl-4-((1-methyl-1H-benzo[d][1,2,3]triazol-5-yl)oxy)phenyl)amino)pyrido[3,2-d]pyrimidin-6-y1)-8-azabicyclo[3.2.1]octan-8-yl)prop-2-en-1-one trifluoroacetate] | 0.5 to 1 | 0.1 to 0.5
C=CC(=O)N1C2CCCC1CC(c1ccc3ncnc(Nc4cc(C)c(Oc5ccc6c(c5)nnn6C)cc4OC)c3n1)C2 (stereo not drawn) [Compound 401, 1-(3-(4-((2-methoxy-5-methyl-4-((1-methyl-1H-benzo[d][1,2,3]triazol-5-yl)oxy)phenyl)amino)pyrido[3,2-d]pyrimidin-6-yl)-9-azabicyclo[3.3.1]nonan-9-yl)prop-2-en-1-one trifluoroacetatexc] | 0.1 to 0.5 | 0.05 to 0.1
C=CC(=O)N(C)[C@@H]1CCCN(c2ncc3ncnc(Nc4ccc(Oc5ccc6c(c5)nnn6C)c(C)c4)c3n2)C1 [Compound 129, (R)-N-methyl-N-(1-(8-((3-methyl-4-((1-methyl-1H-benzo[d][1,2,3]triazol-5-yl)oxy)phenyl)amino)pyrimido[5,4-d]pyrimidin-2-y1)piperidin-3-yl)acrylamide] | 0.1 to 0.5 | 0.05 to 0.1
C=CC(=O)N1CCN(c2ncc3ncnc(Nc4ccc(Oc5ccc6c(c5)nnn6C)c(CC)c4)c3n2)CC1 [Compound 114, 1-(4-(8-((3-ethyl-4-((1-methyl-1H-benzo[d][1,2,3]triazol-5-yl)oxy)phenyl)amino)pyrimido[5,4-d]pyrimidin-2-yl)piperazin-1-yl)prop-2-en-1-one] | 0.1 to 0.5 | 0.1 to 0.5
C=CC(=O)N1CCN(c2ccc3ncnc(Nc4cc(C)c(Oc5ccc6c(c5)nnn6C)cc4OC(F)(F)F)c3n2)CC1(C)C [Compound 306, 1-(2,2-dimethyl-4-(4-((5-methyl-4-((1-methyl-1H-benzo[d][1,2,3]triazol-5-yl)oxy)-2-(trifluoromethoxy)phenyl)amino)py-rido[3,2-d]pyrimidin-6-yl)piperazin-1-yl)prop-2-en-1-one] | 0.1 to 0.5 | 0.1 to 0.5
C=CC(=O)N1C2C=C(c3ccc4ncnc(Nc5ccc(Oc6ccc7c(c6)nnn7C)c(C)c5F)c4n3)CC1CCC2 (stereo not drawn) [Compound 414, 1-(3-(4-((2-fluoro-3-methyl-4-((1-methyl-1H-benzo[d][1,2,3]triazol-5-yl)oxy)phenyl)amino)pyrido[3,2-d]pyrimidin-6-yl)-9-azabicyclo[3.3.1]non-2-en-9-yl)prop-2-en-1-one] | 0.5 to 1 | 0.5 to 1
C=CC(=O)N1CCCN(c2ccc3ncnc(Nc4ccc(Oc5ccc6c(c5)nnn6C)c(C)c4)c3n2)C[C@@H]1C [Compound 284, (S)-1-(2-methyl-4-(4-((3-methyl-4-((1-methyl-1H-benzo[d][1,2,3]triazol-5-yl)oxy)phenyl)amino)pyrido[3,2-d]pyrimidin-6-yl)-1,4-diazepan-1-yl)prop-2-en-1-one] | ≥ 1 | 0.5 to 1
C=CC(=O)N[C@@H]1C[C@H](F)CN(c2ccc3ncnc(Nc4ccc(Oc5ccc6c(c5)nnn6C)c(C)c4F)c3n2)C1 [Compound 298, N-((3R,5S)-5-fluoro-1-(4-((2-fluoro-3-methyl-4-((1-methyl-1H-benzo[d][1,2,3]triazol-5-yl)oxy)phenyl)amino)pyrido[3,2-d]pyrimidin-6-yl)piperidin-3-yl)acrylamide] | < 0.05 | 0.05 to 0.1
C=CC(=O)N1CCN(c2ncc3ncnc(Nc4cc(F)c(Oc5ccc6c(c5)nnn6C)cc4F)c3n2)CC1 [Compound 31, 1-(4-(8-((2,5-difluoro-4-((1-methyl-1H-benzo[d][1,2,3]triazol-5-yl)oxy)phenyl)amino)pyrimido[5,4-d]pyrimidin-2-yl)piperazin-1-yl)prop-2-en-1-one] | 0.1 to 0.5 | 0.1 to 0.5
C=CC(=O)N(C)CCN(C)c1ccc2ncnc(Nc3ccc(Oc4ccc5c(c4)nnn5C)c(C)c3)c2n1 [Compound 76, N-methyl-N-(2-(methyl(4-((3-methyl-4-((1-methyl-1H-benzo[d][1,2,3]triazol-5-yl)oxy)phenyl)amino)pyrido[3,2-d]pyrimidin-6-yl)amino)ethyl)acrylamide] | 0.5 to 1 | 0.1 to 0.5
C=CC(=O)N1CCC(Oc2ncc3ncnc(Nc4ccc(Oc5ccn6ncnc6c5)c(C)c4)c3n2)C1 (stereo not drawn) [Compound 377, 1-(3-((8-((4-([1,2,4]triazolo[1,5-a]pyridin-7-yloxy)-3-methylphenyl)amino)pyrimido[5,4-d]pyrimidin-2-yl)oxy)pyrrolidin-1-yl)prop-2-en-1-one] | 0.1 to 0.5 | 0.1 to 0.5
C=CC(=O)N[C@@H]1CCCN(c2ncc3ncnc(Nc4ccc(Oc5ccc6c(c5)nnn6C)c(C)c4F)c3n2)C1 [Compound 157, (R)-N-(1-(8-((2-fluoro-3-methyl-4-((1-methyl-1H-benzo[d][1,2,3]triazol-5-yl)oxy)phenyl)amino)pyrimido[5,4-d]pyrimidin-2-yl)piperidin-3-yl)acrylamide] | 0.1 to 0.5 | 0.05 to 0.1
C=C1CCN([C@@H]2CCN(c3ncc4ncnc(Nc5ccc(Oc6ccn7ncnc7c6)c(C)c5)c4n3)C2)C1=O [Compound 238, (R)-1′-(8-((4-([1,2,4]triazolo[1,5-a]pyridin-7-yloxy)-3-methylphenyl)amino)pyrimido[5,4-d]pyrimidin-2-yl)-3-methylene-[1,3′-bipyrrolidin]-2-one] | ≥ 1 | 0.1 to 0.5
C=CC(=O)N1CCCC(c2ccc3ncnc(Nc4ccc(Oc5ccc6c(c5)nnn6C)c(C)c4)c3n2)C1 (stereo not drawn) [Compound 398, 1-(3-(4-((3-methyl-4-((1-methyl-1H-benzo[d][1,2,3]triazol-5-yl)oxy)phenyl)amino)pyrido[3,2-d]pyrimidin-6-yl)piperidin-1-yl)prop-2-en-1-one] | 0.1 to 0.5 | 0.05 to 0.1
C=CC(=O)N1CCC[C@@H](N(C)c2ncc3ncnc(Nc4ccc(Oc5ccc6c(c5)nnn6C)c(C)c4)c3n2)C1 [Compound 223, (R)-1-(3-(methyl(8-((3-methyl-4-((1-methyl-1H-benzo[d][1,2,3]triazol-5-yl)oxy)phenyl)amino)pyrimido[5,4-d]pyrimidin-2-yl)amino)piperidin-1-yl)prop-2-en-1-one] | 0.5 to 1 | 0.1 to 0.5
C=CC(=O)N1CCN(c2ccc3ncnc(Nc4ccc(Oc5cc(F)c6c(c5)nnn6C)c(C)c4F)c3n2)CC1 [Compound 91, 1-(4-(4-((2-fluoro-4-((7-fluoro-1-methyl-1H-benzo[d][1,2,3]triazol-5-yl)oxy)-3-methylphenyl)amino)pyrido[3,2-d]pyrimidin-6-yl)piperazin-1-yl)prop-2-en-1-one] | < 0.05 | 0.05 to 0.1
C=CC(=O)N1CCN(c2ccc3ncnc(Nc4ccc(Oc5ccc6c(c5)nnn6C(F)F)c(C)c4F)c3n2)C[C@H]1C [Compound 323, (R)-1-(4-(4-((4-((1-(difluoromethyl)-1H-benzo[d][1,2,3]triazol-5-yl)oxy)-2-fluoro-3-methylphenyl)amino)pyrido[3,2-d]pyrimidin-6-yl)-2-methylpiperazin-1-yl)prop-2-en-1-one] | 0.1 to 0.5 | 0.5 to 1
C=C(F)C(=O)N1CC(F)(F)C12CN(c1ncc3ncnc(Nc4ccc(Oc5ccc6c(c5)nnn6C)c(C)c4)c3n1)C2 [Compound 209, 1-(3,3-difluoro-6-(8-((3-methyl-4-((1-methyl-1H-benzo[d][1,2,3]triazol-5-yl)oxy)phenyl)amino)pyrimido [5,4-d]pyrimidin-2-yl)-1,6-diazaspiro[3.3]heptan-1-yl)-2-fluoroprop-2-en-1-one] | 0.05 to 0.1 | 0.05 to 0.1
C=CC(=O)N(C)CCOc1ncc2ncnc(Nc3ccc(Oc4ccc5c(c4)ncn5C)c(C)c3)c2n1 [Compound 384, N-methyl-N-(2-((8-((3-methyl-4-((1-methyl-1H-benzo[d]imidazol-5-yl)oxy)phenyl)amino)pyrimido[5,4-d]pyrimidin-2-yl)oxy)ethyl)acrylamide] | ≥ 1 | 0.05 to 0.1
C=CC(=O)N1CCN(c2ccc3ncnc(Nc4cc(F)c(Oc5ccc6c(c5)nnn6C)c(C)c4F)c3n2)C[C@H]1C [Compound 326, (R)-1-(4-(4-((2,5-difluoro-3-methyl-4-((1-methyl-1H-benzo[d][1,2,3]triazol-5-yl)oxy)phenyl)amino)pyrido[3,2-d]pyrimidin-6-yl)-2-methylpiperazin-1-yl)prop-2-en-1-one] | 0.1 to 0.5 | 0.05 to 0.1
C=CC(=O)N1CCCN(c2ccc3ncnc(Nc4ccc(Oc5ccc6c(c5)nnn6C)c(C)c4)c3n2)CC1 [Compound 308, 1-(4-(4-((3-methyl-4-((1-methyl-1H-benzo[d][1,2,3]triazol-5-yl)oxy)phenyl)amino)pyrido[3,2-d]pyrimidin-6-yl)-1,4-diazepan-1-yl)prop-2-en-1-one] | 0.5 to 1 | 0.1 to 0.5
C=CC(=O)N1CCN(c2ncc3ncnc(Nc4c(F)cc(Oc5ccc6c(c5)nnn6C)cc4F)c3n2)CC1 [Compound 20, 1-(4-(8-((2,6-difluoro-4-((1-methyl-1H-benzo[d][1,2,3]triazol-5-yl)oxy)phenyl)amino)pyrimido[5,4-d]pyrimidin-2-yl)piperazin-1-yl)prop-2-en-1-one] | 0.1 to 0.5 | 0.5 to 1
